Measured values: paper PMC7887755, “Structure–Activity Relationships of Pyrazolo[1,5-a]pyrimidin-7(4H)-ones as Antitubercular Agents” (ACS Infectious Diseases, 2021)
In brackets after ≈: the same amount, converted by molar mass. Several values for one entry are separate records, joined by “and”; a condition that tells them apart may be missing. Equal entries are not always repeated.

How the values were obtained:
[1] = system: P19^R strain rv1751 H97Y/N; type: cell-based, Mycobacterium tuberculosis
[2] = system: P19^R strain rv1751 L250Q; type: cell-based, Mycobacterium tuberculosis
[3] = system: Mtb strain H37Rv cydC::aph; type: cell-based, Mycobacterium tuberculosis
[4] = system: P19^R strain rv1751 P152S; type: cell-based, Mycobacterium tuberculosis
[5] = system: Mtb H37Rv
[6] = system: P19^R strain rv1751 A434T; type: cell-based, Mycobacterium tuberculosis
[7] = system: P19^R strain rv1751 V96L; type: cell-based, Mycobacterium tuberculosis
[8] = system: P19^R strain rv1751 L399W; type: cell-based, Mycobacterium tuberculosis

Cc1nn2c(=O)cc(-c3ccc(F)c(F)c3)[nH]c2c1-c1ccccc1 [Compound P19, 5-(3,4-Difluorophenyl)-2-methyl-3-phenylpyrazolo[1,5-a]pyrimidin-7(4H)-one]
MIC H97Y/N [1]: 1.56 µM (≈ 0.526 µg/mL) | fold change H97Y/N [1]: 2 | MIC L250Q [2]: 2.3 µM (≈ 0.776 µg/mL) | fold change L250Q [2]: 3 | MIC CydKO [3]: 3.13 µM (≈ 1.06 µg/mL) | MIC P152S [4]: 1.56 µM (≈ 0.526 µg/mL) | fold change P152S [4]: 2 | frequency of resistant clones [5]: 3 × 10^–8 and 4 × 10^–9 | MIC A434T [6]: 1.56 µM (≈ 0.526 µg/mL) | fold change A434T [6]: 2 | MIC V96L [7]: 2.3 µM (≈ 0.776 µg/mL) | fold change V96L [7]: 3 | MIC L399W [8]: 12.5 µM (≈ 4.22 µg/mL) | fold change L399W [8]: 16

Cc1nn2c(=O)cc(-c3ccccc3)[nH]c2c1-c1ccccc1 [Compound 1, 2-Methyl-3,5-diphenylpyrazolo[1,5-a]pyrimidin-7(4H)-one]
MIC H97Y/N [1]: 1.56 µM (≈ 0.47 µg/mL) | fold change H97Y/N [1]: 1.3 | MIC L250Q [2]: 3.13 µM (≈ 0.943 µg/mL) | fold change L250Q [2]: 2.6 | MIC CydKO [3]: 12.5 µM (≈ 3.77 µg/mL) | MIC P152S [4]: 2.3 µM (≈ 0.693 µg/mL) | fold change P152S [4]: 2 | MIC A434T [6]: 1.56 µM (≈ 0.47 µg/mL) | fold change A434T [6]: 1.3 | MIC V96L [7]: 2.3 µM (≈ 0.693 µg/mL) | fold change V96L [7]: 2 | MIC L399W [8]: 12.5 µM (≈ 3.77 µg/mL) | fold change L399W [8]: 10

Cc1nn2c(=O)cc(-c3ccc(Cl)c(Cl)c3)[nH]c2c1-c1ccc(F)cc1 [Compound P24, 5-(3,4-Dichlorophenyl)-3-(4-fluorophenyl)-2-methylpyrazolo[1,5-a]pyrimidin-7(4H)-one]
MIC H97Y/N [1]: 6.25 µM (≈ 2.43 µg/mL) | fold change H97Y/N [1]: 4 | MIC L250Q [2]: 6.26 µM (≈ 2.43 µg/mL) | fold change L250Q [2]: 4 | MIC P152S [4]: 3.90 µM (≈ 1.51 µg/mL) | fold change P152S [4]: 2.5 | MIC A434T [6]: 3.12 µM (≈ 1.21 µg/mL) | fold change A434T [6]: 2 | MIC V96L [7]: 7.82 µM (≈ 3.04 µg/mL) | fold change V96L [7]: 5 | MIC L399W [8]: 18.8 µM (≈ 7.3 µg/mL) | fold change L399W [8]: 12

COc1ccc(-c2cc(=O)n3nc(C)c(-c4ccc(F)cc4)c3[nH]2)cc1 [Compound 4, 3-(4-Fluorophenyl)-5-(4-methoxyphenyl)-2-methylpyrazolo[1,5-a]pyrimidin-7(4H)-one, reference compound]
MIC H97Y/N [1]: 1.56 µM (≈ 0.545 µg/mL) | fold change H97Y/N [1]: 1 | MIC L250Q [2]: 4.7 µM (≈ 1.64 µg/mL) | fold change L250Q [2]: 3 | MIC CydKO [3]: 9.40 µM (≈ 3.28 µg/mL) | MIC P152S [4]: 2.3 µM (≈ 0.804 µg/mL) | fold change P152S [4]: 1.5 | MIC A434T [6]: 2.3 µM (≈ 0.804 µg/mL) | fold change A434T [6]: 1.5 | MIC V96L [7]: 2.3 µM (≈ 0.804 µg/mL) | fold change V96L [7]: 1.5 | MIC L399W [8]: 3.13 µM (≈ 1.09 µg/mL) | fold change L399W [8]: 2

NNC(=O)c1ccncc1 [INH, isoniazid, reference compound]
MIC H97Y/N [1]: 0.04 µM (≈ 0.00549 µg/mL) | MIC L250Q [2]: 0.04 µM (≈ 0.00549 µg/mL) | MIC CydKO [3]: 0.30 µM (≈ 0.0411 µg/mL) | MIC P152S [4]: 0.04 µM (≈ 0.00549 µg/mL) | MIC A434T [6]: 0.04 µM (≈ 0.00549 µg/mL) | MIC V96L [7]: 0.04 µM (≈ 0.00549 µg/mL) | MIC L399W [8]: 0.04 µM (≈ 0.00549 µg/mL)

O=c1cc(CC2CCCCC2)[nH]c2c(-c3ccc(Cl)cc3)cnn12 [Compound 2, 3-(4-Chlorophenyl)-5-(cyclohexylmethyl)pyrazolo[1,5-a]pyrimidin-7(4H)-one, reference compound]
MIC H97Y/N [1]: 0.39 µM (≈ 0.133 µg/mL) | fold change H97Y/N [1]: 1 | MIC L250Q [2]: 1.2 µM (≈ 0.41 µg/mL) | fold change L250Q [2]: 3 | MIC CydKO [3]: 25.0 µM (≈ 8.55 µg/mL) | MIC P152S [4]: 1.2 µM (≈ 0.41 µg/mL) | fold change P152S [4]: 3 | MIC A434T [6]: 1.2 µM (≈ 0.41 µg/mL) | fold change A434T [6]: 3 | MIC V96L [7]: 1.2 µM (≈ 0.41 µg/mL) | fold change V96L [7]: 3 | MIC L399W [8]: 0.39 µM (≈ 0.133 µg/mL) | fold change L399W [8]: 1
